Assay results taken from patent publication US20230190870A1, “Method for Treating Lysosomal Storage Diseases with Histatin Peptides” (THE BOARD OF TRUSTEES OF THE UNIVERSITY OF ILLINOIS, priority 2020, published 2023).
“Also recorded” adds a separate entry of the source. Square brackets hold non-standard residues; d marks the D form. Peptide text beside a SMILES is read from it. pS = N[C@@H](COP(=O)(O)O)C(=O)O

Key:
TMEM97 [1] = target: T1, TMEM97 (Homo sapiens, UniProt Q5BJF2); test: ELISA on plates coated with TMEM97; type: binding
Procedure: A co-immunoprecipitation (co-IP) assay was performed to determine if the interaction between Hst1 and TMEM97 was reproducible at the cellular level. […] These bands may represent monomeric and dimeric versions of Hst1 and are similar to what has been seen with western blot analyses of Hst1 containing samples. […] Enzyme-linked immunosorbent assay (ELISA) were also conducted to detect bound Hst1 on plates coated with TMEM97.
Target sequence in this assay (Q5BJF2 whole entry, species assumed): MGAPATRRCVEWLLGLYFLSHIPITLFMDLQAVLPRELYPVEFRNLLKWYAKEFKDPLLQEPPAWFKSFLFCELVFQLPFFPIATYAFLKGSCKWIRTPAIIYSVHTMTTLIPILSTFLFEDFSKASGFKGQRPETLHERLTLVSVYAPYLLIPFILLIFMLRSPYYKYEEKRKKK

NPC1 KD cells = test: LC3 immunolocalization in NPC1 KD cells (autophagy); type: cell-based; settings: 20 μM or 50 μM
Text: Autophagy. NPC1-deficiency results in increased autophagy as evidenced by elevated microtubule-associated protein 1 light chain 3 (LC3) levels, numerous autophagic vacuoles and enhanced degradation of long-lived proteins (Pacheco, et al. (2007) Human Mol. Genet. 16(12):1495-1503).

[2] = test system: Human corneal epithelial cells; test: Calcium Green-2 calcium signaling in human corneal epithelial cells; type: cell-based
Procedure: Calcium Signaling. Human corneal epithelial cells were treated with Hst1 or Hst5, stained with Calcium Green-2, and relative fluorescence intensity was monitored at 1, 2 and 4 hours. […] This normalization of cellular calcium levels seen after toxicity from benzalkonium chloride treatment is analogous to toxic effects seen in chronic pain and other conditions. As such, histatin peptides may of use in the amelioration of chronic pain.

HCE cells = test: Wound healing in vitro scratch assay; type: cell-based, human
Procedure: Transfection/Knock-Down of TMEM97. Sub-confluent monolayers of HCE cells in grown in 35-mm six-well plates were transfected with reaction mixtures composed of 100 pmol of small interfering RNA (siRNA) to TMEM97 (Santa Cruz Biotechnology; Dallas, Tex.) for 48 hours and 5 μL of transfection reagent sold under the tradename LIPOFECTAMINE® 2000 (Invitrogen; Carlsbad, Calif.) in culture medium sold under the tradename OPTI-MEMO media (Gibco Life Technologies; Grand Island, N.Y.). Complexes were incubated for 20 minutes at 24° C. and then added to cells at 37° C. Incubation was continued for 24 to 48 hours at 37° C. in 5% CO2. Knock-down (KD) of TMEM97 was confirmed by western blot analysis using a rabbit anti-TMEM97 antibody (Novus Bio.; Littleton, Colo.).
Wound Healing in vitro Scratch Assay. HCE cells were cultured in a 96-well plate at 5×10^4 (cells/well) seeding density, and were grown to confluence. Subsequently, a straight line scratch mark was made with a multiscratch wound maker (IncuCyte® 96-well WoundMaker Tool, Essen Biosciences; Ann Arbor, Mich.). The cells were then washed twice with PBS to remove cellular debris. […] The wound areas were measured using ImageJ software (ImageJ 1.47v, NIH, Thornwood; Bethesda, Md.). Relative wound closure was calculated by dividing the closure of the treated wound by that of the untreated control wound. […]

TMEM97 [3] = target: T1, TMEM97; test: Co-immunoprecipitation / western blot in HCE cells; type: binding; design: endogenous in cells; host or cells: HCE cells; settings: 20 μM Hst1 for 6 hours, IP TMEM97 antibody
Procedure: Immunoprecipitation/Western Blot Analysis. The day before, HCE cells were plated at the concentration of 5×10^6 cells/well in a 100 mm dish and were treated with 20 μM of Hst1 for 6 hours. Cells were harvested with lysis buffer (1% NP40, 137 mM sodium chloride, 20 mM Tris [pH 8.0], and 10% glycerol) and the lysates were incubated with 5 μL of a validated rabbit polyclonal anti-TMEM97 antibody (Novus Bio.; Littleton, Colo.) overnight at 4° C. The lysates were incubated with 30 μL of a suspension of protein A/G (Santa Cruz Biotechnology; Dallas, Tex.) for 2 hours at 4° C. with gentle shaking. After centrifugation for 5 minutes, pellets were washed three times and resuspended in 50 μL of 2×NUPAGE® LDS sample buffer (Invitrogen; Carlsbad, Calif.) and boiled for 10 minutes.
For detecting Hst1 bound to TMEM97 protein, the lysates were subjected to electrophoresis on 12% NUPAGE® Bis-Tris gels (Invitrogen; Carlsbad, Calif.), followed by transfer to nitrocellulose membranes (Amersham Protran, GE Healthcare; Pittsburgh, Pa.). Membranes were then blocked with Tris-buffered saline containing 3% nonfat dry milk for 1 hour and incubated with rabbit primary antibody against Hst1 (Mybiosource; San Diego, Calif.) (1:1000) overnight at 4° C. […]
Target sequence in this assay (Q5BJF2 whole entry): as the sequence (Q5BJF2 whole entry, species assumed) above

With `CC(C)C[C@H](NC(=O)[C@H](Cc1ccc(O)cc1)NC(=O)[C@H](CC(N)=O)NC(=O)[C@H](CO)NC(=O)CNC(=O)[C@H](Cc1ccc(O)cc1)NC(=O)[C@H](CC(=O)O)NC(=O)CNC(=O)[C@H](Cc1ccc(O)cc1)NC(=O)[C@H](Cc1ccccc1)NC(=O)[C@@H]1CCCN1C(=O)[C@H](Cc1ccccc1)NC(=O)[C@H](CCC(=O)O)NC(=O)[C@H](CCCNC(=N)N)NC(=O)[C@H](Cc1c[nH]cn1)NC(=O)[C@H](CO)NC(=O)[C@H](Cc1c[nH]cn1)NC(=O)[C@H](Cc1c[nH]cn1)NC(=O)[C@H](CCCCN)NC(=O)[C@H](CCC(=O)O)NC(=O)[C@H](Cc1c[nH]cn1)NC(=O)[C@H](Cc1ccccc1)NC(=O)[C@H](CCCCN)NC(=O)[C@H](CCCNC(=N)N)NC(=O)[C@H](CCCNC(=N)N)NC(=O)[C@H](Cc1ccc(O)cc1)NC(=O)CNC(=O)[C@H](Cc1c[nH]cn1)NC(=O)[C@H](Cc1c[nH]cn1)NC(=O)[C@H](CCCNC(=N)N)NC(=O)[C@H](CCCCN)NC(=O)[C@H](CCC(=O)O)NC(=O)[C@H](Cc1c[nH]cn1)NC(=O)[C@H](COP(=O)(O)O)NC(=O)[C@@H](N)CC(=O)O)C(=O)N[C@@H](Cc1ccc(O)cc1)C(=O)N[C@@H](CC(=O)O)C(=O)N[C@@H](CC(N)=O)C(=O)O` [Hst1] (H-D[pS]HEKRHHGYRRKFHEKHHSHREFPFYGDYGSNYLYDN-OH; N-terminus and C-terminus assumed) the “binding to TMEM97 in ELISA” value (TMEM97 [1]) was “confirmed binding”, the “effect of DTG on Hst1 binding in ELISA” value (TMEM97 [1]; addition of 1,3-Di-o-tolylguanidine (DTG)) was “did not alter” and the LC3 levels (NPC1 KD cells) was “dose-dependent reduction in LC3 levels”. For the same molecule, the “calcium signaling (relative fluorescence intensity)” value ([2]; 1, 2 and 4 hours) was “increases calcium signaling”, the “elevated calcium levels after benzalkonium chloride” value ([2]; cells treated with 0.001% BAK) was “reduced elevated calcium levels” and the “scratch closure / wound healing rate” value (HCE cells; 20 or 50 μM, 8 and 16 hours, versus untreated control) was “increases in wound healing rates; also recorded: statistically significant improvement in scratch closure rates”. For the same molecule, the “wound closure response in TMEM97 KD cells” value (HCE cells; siRNA knock-down of TMEM97) was “abolished this responsiveness; also recorded: loss of this response” and the “co-precipitation with TMEM97” value (TMEM97 [3]) was “co-precipitated with TMEM97”.
